pEC50: −log10 of the molar value. Converted amounts (≈) assume the structure as drawn. Where two headings read alike, the source gives them in different places. No end group written: not given here.
How the values were obtained:
HIV-1 strain IIIB = assay type: cell-based, human immunodeficiency virus type 1
Procedure: Peptide effectiveness was determined in an HIV-1 infection inhibition assay using P4-R5 MAGI indicator cells. […] The cells were then infected with HIV-1 strain IIIB (Advanced Biotechnologies, Inc., Columbia, MD; 10^7.8 TCID50/mL) at multiplicities of infection (MOI) of 0.6, 0.05, or 0.03 in the presence or absence of peptide or dextran sulfate (DS) (Sigma, St. Louis, MO). Following a 2 h incubation at 37°C, the cells were washed with PBS, provided with 200 μL of new media, and incubated for an additional 46 h. Levels of infection were measured using the Galacto-Star-β-Galactosidase Reporter Gene Assay System for Mammalian Cells (Applied Biosystems, Carlsbad, CA) as described by the manufacturer. Chemiluminescence was measured using a Glomax Luminometer plate reader (Promega, Madison, WI).

P4-R5 MAGI cells = conditions: 2 h exposure at concentrations below 1 mg/mL; MTT immediately after exposure or 24 h or 48 h after exposure; two independent assays in quadruplicate
Procedure: P4-R5 MAGI cells were plated at a concentration of 1.5 × 10^4 cells/well in a flat-bottom 96-well plate. The cells were then exposed to the indicated half log concentrations of peptide and incubated at 37°C for 2 h. Following exposure, the cells were washed with PBS and then assayed for cell viability immediately or at 24 h or 48 h after exposure. Viability was measured using a 3-(4,5-dimethylthiazol-2-yl)-2,5-diphenyltetrazolium bromide (MTT) assay as previously described.
Mean values and standard deviations were calculated from two independent assays in which each concentration was examined in quadruplicate.

[1] = exposure durations as long as 48 h, not conjugated to payload; cited from earlier work
HIV-1 = conditions: preliminary studies, data not shown

## N=C(N)NCCC[C@H](NC(=O)[C@H](CCCNC(=N)N)NC(=O)[C@H](CCCNC(=N)N)NC(=O)[C@H](CCCNC(=N)N)NC(=O)[C@H](CCCNC(=N)N)NC(=O)[C@H](CCCNC(=N)N)NC(=O)[C@H](CCCNC(=N)N)NC(=O)[C@H](CCCNC(=N)N)NC(=O)[C@H](CCCNC(=N)N)NC(=O)[C@@H](N)CCCNC(=N)N)C(=O)O [R-10, decaarginine]
HIV-1 strain IIIB; strain IIIB, 2 h
  EC50 (concentration that resulted in 50% reduction in infection relative to mock-treated, HIV-1-infected cells): 14 µg/mL (≈ 8.86 µM)

## N=C(N)NCCC[C@H](NC(=O)[C@H](CCCNC(=N)N)NC(=O)[C@H](CCCNC(=N)N)NC(=O)[C@H](CCC(N)=O)NC(=O)[C@H](CCCNC(=N)N)NC(=O)[C@H](CCCNC(=N)N)NC(=O)[C@H](CCCCN)NC(=O)[C@H](CCCCN)NC(=O)[C@H](CCCNC(=N)N)NC(=O)CN)C(=O)O [Tat peptide]
P4-R5 MAGI cells
  effect on P4-R5 MAGI cell viability: no effect
HIV-1 strain IIIB; HIV-1 IIIB, 0.05 MOI (8.8 x 10^3 infectious virions/mL), P4-R5 MAGI cells, 2 h exposure
  EC50: 140 µg/mL
HIV-1 strain IIIB; HIV-1 IIIB, 0.6 MOI, P4-R5 MAGI cells, 2 h exposure, same value as 0.094 mg/mL in molar units
  pEC50: 4.30
[1]
  concentration up to which peptide alone had no effect on cell viability: up to 100 μM

## RRKKRRRRRR [TPvar3]
HIV-1 strain IIIB; strain IIIB, 2 h
  EC50 (concentration that resulted in 50% reduction in infection relative to mock-treated, HIV-1-infected cells): 25 µg/mL

## dextran sulfate [reference compound]
HIV-1 strain IIIB; HIV-1 IIIB, 0.6 MOI, P4-R5 MAGI cells, 2 h exposure with virus, wash, further 46 h, beta-galactosidase chemiluminescence, two independent assays in quadruplicate
  EC50 (concentration that resulted in 50% reduction in infection relative to mock-treated, HIV-1-infected cells): 0.7 µg/mL

## nona-arginine
HIV-1
  anti-HIV-1 activity: anti-HIV-1 activity

Reference: paper PMC3272803, “Infection by CXCR4-Tropic Human Immunodeficiency Virus Type 1 Is Inhibited by the Cationic Cell-Penetrating Peptide Derived from HIV-1 Tat” (International Journal of Peptides, 2012)
